{
  "source": "patent US11478467B2",
  "about": "(priority 2017, dated 2022)",
  "key": {"5-HT2A receptors [1]": {"molecular_target": "T1, 5-HT2A receptors (Homo sapiens (Human), UniProt P28223)", "T1 sequence (P28223 whole entry)": "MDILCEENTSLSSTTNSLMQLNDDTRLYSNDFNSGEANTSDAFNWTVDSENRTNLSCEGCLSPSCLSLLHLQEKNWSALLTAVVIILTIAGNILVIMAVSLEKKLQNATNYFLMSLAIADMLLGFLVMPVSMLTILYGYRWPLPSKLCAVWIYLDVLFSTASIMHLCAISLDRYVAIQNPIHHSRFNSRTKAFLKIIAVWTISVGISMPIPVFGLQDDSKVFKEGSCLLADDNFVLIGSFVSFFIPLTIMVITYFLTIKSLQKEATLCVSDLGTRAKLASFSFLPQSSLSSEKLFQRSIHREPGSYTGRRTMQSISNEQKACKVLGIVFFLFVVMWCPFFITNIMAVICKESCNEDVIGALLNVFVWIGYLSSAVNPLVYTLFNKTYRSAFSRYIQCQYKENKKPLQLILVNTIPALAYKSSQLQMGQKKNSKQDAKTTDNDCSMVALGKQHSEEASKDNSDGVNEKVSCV", "experiment": "5-HT2A receptor antagonist radioligand binding ([3H]ketanserin)", "procedure": "HEK-293 cells expressing human recombinant 5HT2A receptor were used in the antagonist radioligand binding studies. […] The inhibition constants (Ki) were calculated using the Cheng Prusoff equation. Both sarpogrelate enantiomers were potent inhibitors of [3H]ketanserin binding (Table 1). M1 enantiomers also potently bind to 5HT2A receptors with the Ki values that are approximately one order of magnitude higher than those of sarpogrelate enantiomers (Table 1). There are no meaningful differences between enantiomers in terms of 5-HT2A receptor binding for sarpogrelate or its main metabolite.\n5HT2a ASSAY: Evaluation of the affinity of compounds for the human 5-HT2A receptor in transfected HEK-293 cells determined in a radioligand binding assay. Cell membrane homogenates (30-50 μg protein) were incubated 15 min at 37° C. with 0.5 nM [3H]ketanserin in the absence or presence of the test compound in a buffer containing 50 mM Tris-HCl (pH 7.4). Nonspecific binding was determined in the presence of 1 μM ketanserin. Following incubation, the samples were filtered rapidly under vacuum through glass fiber filters presoaked with 0.3% PEI and rinsed several times with ice-cold 50 mM Tris-HCl using a 96-sample cell harvester. The filters were dried then counted for radioactivity in a scintillation counter using a scintillation cocktail (WO2005013952A1, EP1500391A1[ab1], incorporated in its entirety by reference)."}, "CYP2D6 [2]": {"molecular_target": "T2, CYP2D6 (Homo sapiens (Human), UniProt P10635)", "T2 sequence (P10635 whole entry)": "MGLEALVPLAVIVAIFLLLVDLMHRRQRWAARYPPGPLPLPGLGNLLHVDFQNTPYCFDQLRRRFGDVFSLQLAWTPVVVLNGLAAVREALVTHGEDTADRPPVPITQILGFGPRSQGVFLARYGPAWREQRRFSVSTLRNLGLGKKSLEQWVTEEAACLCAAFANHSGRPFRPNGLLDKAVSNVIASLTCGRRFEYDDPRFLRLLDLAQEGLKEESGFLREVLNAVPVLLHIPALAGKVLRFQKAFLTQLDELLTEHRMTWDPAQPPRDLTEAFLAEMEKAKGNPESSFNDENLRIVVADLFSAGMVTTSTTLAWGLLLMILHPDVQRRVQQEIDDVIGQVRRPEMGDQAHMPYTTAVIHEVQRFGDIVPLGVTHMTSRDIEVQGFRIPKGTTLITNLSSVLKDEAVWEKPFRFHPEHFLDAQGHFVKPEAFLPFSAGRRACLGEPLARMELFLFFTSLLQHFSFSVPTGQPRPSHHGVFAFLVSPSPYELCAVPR", "experiment": "Dextromethorphan O-demethylase activity in human liver microsomes", "format": "biochemical", "procedure": "Dextromethorphan O-demethylase activity was determined in human liver microsomes. […] The incubation mixtures contained pooled human liver microsomes (final concentrations: 0.25 mg/ml), dextromethorphan, and a NADPH-generating system (1.3 mM NADP+, 3.3 mM glucose 6-phosphate, 3.3 mM MgCl2, and 0.4 U/ml glucose-6-phosphate dehydrogenase). […] All incubations were performed in triplicate, and mean values were used for analysis. […] Both sarpogrelate enantiomers inhibited CYP2D6-mediated dextromethorphan O-demethylation (Table 4)."}, "[3]": {"tested_on": "hyperactivity in rats after olfactory bulbectomy", "experiment": "Motor hyperactivity induced by olfactory bulbectomy in rats", "format": "in vivo, rat", "procedure": "In a dedicated set of studies, adult male Sprague-Dawley rats (Charles River, Germany) were subjected to bilateral olfactory bulbectomy performed under ketamine/xylasine anesthesia. The animals were allowed to recover for 14 days following surgery while being handled daily to eliminate any aggressiveness that would otherwise arise. Sham-operated animals were treated in the same way but the olfactory bulbs were left intact. Drugs administration and locomotor activity testing were performed 4 times for each rat with 72 hours break between consecutive test sessions. Prior to each test session, animals were first treated with dextromethorphan (0, 15, 30 or 60 mg/kg. per os) followed 15 min later by sarpogrelate (1, 3 and 10 mg/kg, intraperitoneal) and another 15 min later were placed into Opto-Varimex cages for locomotor activity recording over 30 min. Hyperactivity in rats after olfactory bulbectomy is observed mostly during the early portion of the test sessions. […] Post hoc pairwise comparisons (Sidak's multiple comparisons test) confirmed that significant differences between bulbectomized and sham-operated were observed only in rats that were pretreated prior to the test with vehicle instead of sarpogrelate."}, "[4]": {"experiment": "Pharmacokinetic study of sarpogrelate hydrochloride i.v. in rats", "format": "in vivo, rat", "conditions": "rat, in vivo; 2 mg/kg intravenous bolus, male Wistar rats, plasma; read-out: Apparent terminal elimination half-life (converted)", "procedure": "Pharmacokinetic study was performed in male Wistar rats equipped with the jugular vein cannulas. Sarpogrelate hydrochloride was formulated in Pharmasolv: PBS buffer (5:95) mixture and administered at the dose of 2 mg/kg intravenously. Blood samples were collected from the jugular vein using heparin as anticoagulant at the scheduled time-points: 5 min, 15 min, 30 min, 1 h, 1.5 h, 2 h, 4 h, and 6 h. An LC-MS/MS bioanalytical method was used for the simultaneous quantification of sarpogrelate and M1 in plasma samples. […] Formation of M1 metabolite of sarpogrelate was rapid as the highest M1 concentrations were measured at the first sampling time points."}, "[5]": {"tested_on": "PCP-induced hyperactivity", "experiment": "Phencyclidine-induced hyperactivity in rats (sarpogrelate and dextromethorphan)", "format": "in vivo, rat"}, "[6]": {"experiment": "Blood glucose levels and oral glucose tolerance in rats", "format": "in vivo, rat", "conditions": "dextromethorphan administered in combination with sarpogrelate", "procedure": "Test substances were administered to male Wistar (Han) rats (180-280 g at the beginning of the experiments; Janvier Labs) housed in groups under free access to food and water. After overnight food deprivation, the tip of the tail was cut, each rat was weighed, housed individually and left without stress in a quiet room. Approximately 1 hour later, baseline blood glucose was measured from a drop of blood collected from the tail tip, using a commercially available glucose-meter (OneTouch®, Lifescan) and then rats received intraperitoneal injection of sarpogrelate and/or dextromethorphan and 30 min later blood glucose was measured again and rats immediately challenged with glucose at 2 g/kg by oral gavage. Then, blood glucose was measured at 6 time-points until 180 minutes post-glucose challenge."}, "DOI-induced head shakes": {"tested_on": "DOI-induced head shakes", "experiment": "DOI-induced head shakes in rats", "format": "in vivo, rat", "conditions": "0.3, 1 and 3 mg/kg 30 min prior to DOI 3 mg/kg; Sprague-Dawley rats"}, "5-HT2A receptors [7]": {"molecular_target": "T1, 5-HT2A receptors", "conditions": "compared with ritanserin; cited from earlier work"}, "2D6": {"molecular_target": "2D6 (Homo sapiens (Human), UniProt P10635)", "sequence (P10635 whole entry)": "as above", "conditions": "in vivo; cited from earlier work"}, "CYP2D6 [8]": {"molecular_target": "T2, CYP2D6", "conditions": "cited from earlier work"}, "CYP2D6 [9]": {"molecular_target": "T2, CYP2D6", "conditions": "microsomes", "method": "Dextromethorphan O-demethylase activity is determined in human liver microsomes. […] The incubation mixtures contain pooled human liver microsomes, dextromethorphan, and a NADPH-generating system. After incubation and centrifugation, the supernatant is diluted up to 100-fold with acetonitrile and then injected into the LC-MS/MS system. All incubations are performed in triplicate, and mean values are used for analysis. The IC50 values (concentration causing a half-maximal inhibition of control specific binding) and Hill coefficients (nH) are determined using methods such as non-linear regression analysis of the competition curves generated with mean replicate values using Hill equation curve fitting."}, "[10]": {"conditions": "rat, in vivo, cited from earlier work"}, "[11]": {"tested_on": "immobility induced by tail suspension", "experiment": "Tail suspension test in mice", "format": "in vivo, mouse", "conditions": "ritanserin with effective dose of memantine 10 mg/kg", "procedure": "Tail suspension is one of the classical tests used to study antidepressant drugs and was also applied to evaluate antidepressant-like effects of NMDA receptor channel blockers (Kos T et al., Effect of 5-HT3 receptor antagonist MDL 72222 on behaviors induced by ketamine in rats and mice. European Neuropsychopharmacology (2006) 16:297-310). Mice were transferred from the housing room to the testing area in their home cages and allowed to adapt to the new environment for at least 1 h before drug treatment. Immobility was induced by tail suspension whereby mice were attached individually on a paper adhesive tape, 65 cm above the table top. The tape was placed approximately 1 cm from the tip of the tail. Animals were suspended for 6 min and the duration of immobility was recorded. Mice were considered immobile only when they were completely motionless. […]"}},
  "data": [
    {"molecule": "COc1cccc(CCc2ccccc2OCC(CN(C)C)OC(=O)CCC(=O)O)c1", "note": "(racemic) [Compound 50, 4-((1-(dimethylamino)-3-(2-(3-methoxyphenethyl)phenoxy)propan-2-yl)oxy)-4-oxobutanoic acid]", "values": [
      {"measurement": "Ki", "setting": "5-HT2A receptors [1]; Ki calculated using the Cheng Prusoff equation", "result": 5.01, "unit": "nM"},
      {"measurement": "IC50", "setting": "5-HT2A receptors [1]; inhibition of [3H]ketanserin binding, HEK-293 cells expressing human recombinant 5HT2A receptor", "result": 9.6, "unit": "nM"},
      {"measurement": "IC50", "setting": "CYP2D6 [2]", "result": 1200, "unit": "nM"},
      {"measurement": "activity of sham-operated rats", "setting": "[3]; doses with anti-hyperactivity effects", "result": "do not affect activity of sham-operated rats"},
      {"measurement": "time in ambulations of bulbectomized rats", "setting": "[3]; sarpogrelate 3 or 10 mg/kg i.p., first 15 min of the test", "result": "spent less time in ambulations"},
      {"measurement": "half-life", "setting": "[4]", "result": "1.21 ± 0.159", "unit": "h"},
      {"measurement": "ANOVA interaction between dose of sarpogrelate and dose of dextromethorphan", "setting": "[5]; PCP 5 mg/kg s.c., 60-120 min, listed as sarpogrelate racemate", "result": "significant interaction"},
      {"measurement": "activity in PCP-treated rats", "setting": "[5]; given in the absence of dextromethorphan", "result": "neither sarpogrelate racemate nor sarpogrelate enantiomers reduced activity"},
      {"measurement": "motor hyperactivity in PCP-treated rats", "setting": "[5]; in the presence of dextromethorphan, racemate 3 mg/kg, (−) sarpogrelate 1 or 3 mg/kg i.p., PCP 5 mg/kg s.c., 60-120 min", "result": "inhibited motor hyperactivity in PCP-treated rats"},
      {"measurement": "effect of dextromethorphan on blood glucose level", "setting": "[6]", "result": "reversed"},
      {"measurement": "frequency of DOI-induced head shakes", "setting": "DOI-induced head shakes", "result": "reduced"},
      {"measurement": "affinity for 5-HT2A receptors", "setting": "5-HT2A receptors [7]", "result": "the same affinity as ritanserin"},
      {"measurement": "classification as 2D6 inhibitor", "setting": "2D6", "result": "weak 2D6 inhibitor"},
      {"measurement": "increase in the substrate AUC", "setting": "2D6", "result": "less than 2 fold"},
      {"measurement": "inhibition type (Dixon plots)", "setting": "CYP2D6 [8]", "result": "fit well to all competitive inhibition types"}
    ]},
    {"molecule": "CN(C)CCO[C@]1(c2ccccc2)C[C@H]2CC[C@]1(C)C2(C)C", "note": "[Compound 829, N,N-dimethyl-2-[[(1R,3S,4R)-4,7,7-trimethyl-3-phenyl-3-bicyclo[2.2.1]heptanyl]oxy]ethanamine]", "values": [
      {"measurement": "CYP2D6-mediated dextromethorphan O-demethylation", "setting": "CYP2D6 [9]", "result": "observed to inhibit"},
      {"measurement": "t(max)", "setting": "[10]; po", "result": 1.0, "unit": "h"},
      {"measurement": "AUC (0.96) for H-3 relative to C-14 (times higher)", "setting": "[10]", "result": "10-15 times"},
      {"measurement": "concentrations in the hypophysis relative to plasma and brain tissues", "setting": "[10]", "result": "at least two times higher"},
      {"measurement": "entry into brain tissues", "setting": "[10]", "result": "intact molecules entered brain tissues from the circulation"},
      {"measurement": "ratio of AUC of H-3-labelled compound over C-14", "setting": "[10]", "result": "50-60"},
      {"measurement": "time of peak characteristic of enterohepatic cycle", "setting": "[10]", "result": 12, "unit": "h"},
      {"measurement": "time of peak concentrations after the final treatment", "setting": "[10]", "result": 0.5, "unit": "h"}
    ]},
    {"molecule": "Cc1nc2sccn2c(=O)c1CCN1CCC(=C(c2ccc(F)cc2)c2ccc(F)cc2)CC1", "note": "[ritanserin]", "values": [
      {"measurement": "antidepressant-like effects of memantine (immobility time)", "setting": "[11]", "result": "reverse antidepressant-like effects of an effective dose of memantine"}
    ]}
  ]
}
